Experimental data as given in article PMC5384001 (Scientific Reports, 2017).
Several values for one entry are separate records, joined by “and”; a condition that tells them apart may be missing. Identical values can stand only once.

Columns and labels:
GluD2-Lc(Y770F) = biological target: T1, GluD2-Lc(Y770F) (Rattus norvegicus, UniProt Q63226, A654T/Y770F); assay: Two-electrode voltage clamp in Xenopus oocytes, inhibition of spontaneous currents; assay type: cell-based; conditions: fraction of spontaneous current inhibited by saturating D-serine
T1 construct: the function of full-length receptors as well, we introduced them into the GluD2 lurcher mutant (GluD2-Lc); expressed in transfected cells; host or cells: Xenopus laevis oocytes injected with cRNA
T1 sequence (Q63226 24-1007 A654T/Y770F): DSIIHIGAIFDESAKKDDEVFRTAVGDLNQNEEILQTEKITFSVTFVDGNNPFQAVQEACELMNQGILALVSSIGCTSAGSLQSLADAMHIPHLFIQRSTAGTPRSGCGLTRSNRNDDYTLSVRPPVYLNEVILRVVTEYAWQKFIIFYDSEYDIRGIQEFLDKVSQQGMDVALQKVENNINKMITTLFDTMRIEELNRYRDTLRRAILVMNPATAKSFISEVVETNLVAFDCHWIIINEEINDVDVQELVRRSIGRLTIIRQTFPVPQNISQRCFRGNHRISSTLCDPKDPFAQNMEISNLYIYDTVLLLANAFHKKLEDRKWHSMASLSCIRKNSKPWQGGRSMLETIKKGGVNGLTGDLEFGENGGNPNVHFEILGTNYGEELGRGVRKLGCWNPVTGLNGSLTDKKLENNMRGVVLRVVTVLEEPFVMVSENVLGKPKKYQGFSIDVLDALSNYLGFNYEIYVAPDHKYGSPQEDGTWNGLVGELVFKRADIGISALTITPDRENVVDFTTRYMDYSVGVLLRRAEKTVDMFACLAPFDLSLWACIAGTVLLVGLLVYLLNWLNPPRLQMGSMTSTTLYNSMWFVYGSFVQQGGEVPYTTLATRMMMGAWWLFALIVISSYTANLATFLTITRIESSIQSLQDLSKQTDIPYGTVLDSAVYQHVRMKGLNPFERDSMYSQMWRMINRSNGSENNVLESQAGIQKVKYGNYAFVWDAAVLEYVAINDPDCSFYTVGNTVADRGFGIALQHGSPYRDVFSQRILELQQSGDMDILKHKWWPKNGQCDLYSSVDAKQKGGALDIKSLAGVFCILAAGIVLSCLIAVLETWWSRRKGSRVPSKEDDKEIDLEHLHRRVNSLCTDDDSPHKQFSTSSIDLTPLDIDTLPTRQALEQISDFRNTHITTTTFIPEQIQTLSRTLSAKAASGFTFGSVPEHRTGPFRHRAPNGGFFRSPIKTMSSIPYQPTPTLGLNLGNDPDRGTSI
Source text: (§1) All cDNAs for expression in Xenopus oocytes were cloned into the vector pSGEM[30]. Point mutants of GluD2-Lc were constructed by overlap extension PCR with mutagenic oligonucleotide primers. The GluD2-Lc-(H)GluN1 chimera was constructed by transferring the S1- and S2-encoding sequences from GluD2-LBD-(H)GluN1 to GluD2-Lc via overlap extension PCR using tail primers. The S1 and S2 sequences were transferred separately, yielding GluD2-Lc-(HS1)GluN1 and GluD2-Lc-(HS2)GluN1 constructs. GluD2-Lc-(H)GluN1 was then produced from these by another overlap extension PCR. Complementary RNA (cRNA) for injection into oocytes was synthesised from 1 μg of linearised template DNA with the mMESSAGE mMACHINE in vitro transcription kit (Ambion, Austin, TX, USA).
(§2) Oocytes were obtained by surgically removing parts of the ovaries from Xenopus laevis (Nasco, Fort Atkinson, WI, USA) anaesthetised with 1.5 g/L 3-aminobenzoic acid ethylester (Sigma, Taufkirchen, Germany). […] Oocytes were injected with 11 ng cRNA (10 ng of each cRNA for co-expression of GluN1 and GluN2A) using a nanoliter injector (WPI, Sarasota, FL, USA). Four days after cRNA injection, current responses were recorded under voltage clamp at –70 mV with a Turbo Tec-10CD amplifier (npi electronic, Tamm, Germany) controlled by Patchmaster software (HEKA, Lambrecht, Germany). Currents were filtered with a 20 Hz low-pass filter and then digitised with a sampling rate of 50 Hz. Recording electrodes were pulled from borosilicate glass (Hilgenberg, Malsfeld, Germany) with an L/M-3P-A vertical pipette puller (List-Medical), filled with 3 M KCl, and had resistances of 0.5–5 MΩ (voltage electrode) or 0.5–1.5 MΩ (current electrode). Recordings were performed in a 50 μL chamber under constant superfusion with extracellular solution at a flow rate of 3–5 mL/min. […] Finally, Ba-NFR and then NMDGR were applied again to check for reversibility.

GluD2-Lc-(H)GluN1 = biological target: T2, GluD2-Lc-(H)GluN1 (Rattus norvegicus, UniProt Q63226, A654T/A766F/D542Y/D767R/N763E/R768S/S544G/T764L/V761T/V765F/Y543Q); assay: as above; assay type: cell-based
T2 construct: the function of full-length receptors as well, we introduced them into the GluD2 lurcher mutant (GluD2-Lc); expressed in transfected cells; host or cells: Xenopus laevis oocytes injected with cRNA
T2 sequence (Q63226 24-1007 D542Y/Y543Q/S544G/A654T/V761T/N763E/T764L/V765F/A766F/D767R/R768S): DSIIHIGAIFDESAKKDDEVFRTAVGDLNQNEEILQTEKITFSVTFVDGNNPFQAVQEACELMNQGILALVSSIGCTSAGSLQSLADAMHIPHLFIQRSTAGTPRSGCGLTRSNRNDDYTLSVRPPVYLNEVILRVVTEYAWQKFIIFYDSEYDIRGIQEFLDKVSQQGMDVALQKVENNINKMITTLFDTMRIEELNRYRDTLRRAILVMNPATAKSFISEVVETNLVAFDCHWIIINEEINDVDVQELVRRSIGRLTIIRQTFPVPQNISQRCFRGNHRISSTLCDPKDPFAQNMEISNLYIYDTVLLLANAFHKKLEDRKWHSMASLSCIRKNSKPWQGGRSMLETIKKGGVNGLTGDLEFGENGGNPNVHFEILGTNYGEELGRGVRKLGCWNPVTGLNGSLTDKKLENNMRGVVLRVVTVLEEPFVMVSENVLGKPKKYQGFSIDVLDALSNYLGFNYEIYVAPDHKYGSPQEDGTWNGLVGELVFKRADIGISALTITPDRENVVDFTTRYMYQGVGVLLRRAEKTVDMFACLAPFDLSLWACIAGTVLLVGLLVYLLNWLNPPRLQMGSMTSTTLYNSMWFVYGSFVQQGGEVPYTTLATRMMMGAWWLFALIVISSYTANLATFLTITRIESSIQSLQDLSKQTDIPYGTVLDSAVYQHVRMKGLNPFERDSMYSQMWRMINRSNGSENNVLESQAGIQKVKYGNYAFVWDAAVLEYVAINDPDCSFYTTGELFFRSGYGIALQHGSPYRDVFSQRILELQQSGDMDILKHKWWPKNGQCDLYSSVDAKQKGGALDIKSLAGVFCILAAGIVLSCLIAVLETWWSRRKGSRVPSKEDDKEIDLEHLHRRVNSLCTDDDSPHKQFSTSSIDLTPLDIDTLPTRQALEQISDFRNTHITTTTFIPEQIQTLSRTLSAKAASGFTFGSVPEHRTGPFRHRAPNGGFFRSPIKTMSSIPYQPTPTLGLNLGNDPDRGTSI
Source text: as §1, §2

For N[C@H](CO)C(=O)O [D-serine], the “D-serine efficacy Mean ± SEM” value (GluD2-Lc(Y770F)) was 59.9 ± 1.7%, the “D-serine concentration of maximum inhibition of spontaneous currents” value (GluD2-Lc-(H)GluN1; bell-shaped concentration–response curve) was 10 µM and the “D-serine efficacy Mean ± SEM” value (GluD2-Lc-(H)GluN1; fraction of spontaneous current inhibited by saturating D-serine) was 13% and 12.9 ± 0.8%. For the same compound, the “maximal, absolute, D-serine-induced steady-state inhibition of spontaneous currents” value (GluD2-Lc-(H)GluN1; n = 30) was 53 ± 8 nA.
